{"source": "patent US7579329B2", "about": "“P450RAI-2 (P450 cytochrome 26B), encoding nucleic acid molecules and methods and uses thereof” (Cytochroma Inc., priority 1999, dated 2009)", "key": {"CYP26B (P450RAI-2)": {"target": "T1, CYP26B (P450RAI-2) (Homo sapiens, UniProt Q9NR63)", "T1 sequence (Q9NR63 1-512)": "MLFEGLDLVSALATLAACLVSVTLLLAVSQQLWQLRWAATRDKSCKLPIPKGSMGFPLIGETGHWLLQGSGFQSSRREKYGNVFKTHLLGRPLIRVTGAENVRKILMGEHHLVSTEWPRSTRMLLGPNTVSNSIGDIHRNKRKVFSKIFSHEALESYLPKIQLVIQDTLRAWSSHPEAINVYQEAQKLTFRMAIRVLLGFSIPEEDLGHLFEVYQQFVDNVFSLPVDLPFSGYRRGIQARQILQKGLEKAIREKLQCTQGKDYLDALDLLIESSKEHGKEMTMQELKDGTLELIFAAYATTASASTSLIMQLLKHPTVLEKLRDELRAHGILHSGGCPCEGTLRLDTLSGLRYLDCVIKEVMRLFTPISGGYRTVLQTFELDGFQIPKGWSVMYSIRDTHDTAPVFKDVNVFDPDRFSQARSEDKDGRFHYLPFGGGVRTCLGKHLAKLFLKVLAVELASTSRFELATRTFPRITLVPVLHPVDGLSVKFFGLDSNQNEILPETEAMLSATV", "test": "[3H]-RA-metabolism inhibition assay using microsomes from Hela-CYP26B (stable) cells", "settings": "5 μg microsomes, NADPH, 1 hour at 37° C., water-soluble metabolites", "description": "[^3H]-RA-metabolism inhibition assay was carried outusing microsomes prepared from Hela-CYP26B (stable) cells. […] The reaction was started by adding NADPH for 1 hour at 37° C. and then total reinoids were extracted using Bligh-Dyer procedure and water-soluble metabolites counted. […] Ketoconazol is an inhibitor of CYP26B."}, "P450RAI-2 transcripts": {"tested_on": "P450RAI-2 transcripts", "test": "Induction of P450RAI-2 transcripts in human cell lines (Northern blot, RT-PCR)", "type": "cell-based", "settings": "MCF-7 cells, 10^-6 M retinoid, 12 hours, northern blot", "text": "HPK1a-ras (ras-transformed human keratinocyte), COS-1 (African green monkey kidney and V79 cells (Chinese Hamster lung) were maintained in DMEM supplemented with 10% FBS (5% for V79). WTE (human non-small cell lung carcinoma and SW900 (human non-small cell lung carcinoma) cells were maintained in RPMI supplemented with 10% FBS. SK-Luci-6 (human non-small cell lung carcinoma) and SK-MES-1 (human non-small cell lung carcinoma) cells in RPMI with 5% FBS. NB4 (human acute prmyelocytic leukemia-serived) cells were maintained in RPMI supplemented with 10% FBS and gentamicin ([…]) HeLa cells (human cervical carcinoma) were maintained in MEM supplemented with 10% FBS. Previous cell lines were supplemented with penicillin (50 units/ml) streptomycin (50 ug/ml) and fungizone (0.1% final concentration). MCF-7 cells (human breast epithelial adenocarcinoma) were grown in MEM supplemented with 10% FBS, insulin (10 ng/ml), sodium pyruvate (0.5 mM), non-essential amino acids (100 nM), L-glutamine (2 mM), penicillin (5 ug.ml), streptomycin (5 ug/ml), fungizone (200 ng/ml), and gentamicin ([…]). All reagents were supplied by Life Technologies, NY. Cells lines were maintained at 37° C. in an atmosphere of 5% CO2 and 95% air.\nGels were photographed under ultraviolet light and then blotted onto Hybond ECL nitrocellulose membrane (Amersham Pharmacia Biotech, UK) and fixed to the membrane by baking at 80° C. for 2 hours under vacuum. […] Full length P450RAI-1 and P450RAI-2 cDNA were labeled with α-[^32P]dATP using Prime-A-Gene Labeling System (Promega, WI). The blot was washed two times for 15 minutes in 2×SSC, 0.1% SDS at room temperature then for 15 minutes at 60° C. in 0.1×SSC, and 0.1% SDS and exposed at −70° C. for 19 hours to Kodak X-Omat AR film (Eastman Kodak Company, NY).\nThe regulation of P450RAI-2 expression by various retinoids was checked in three different human cell lines, SKMES, CALU-1 and MCF-7. […] The blot was washed as follows: 2×SSPE & 0.1% SDS two washes of 5 minutes each; 1×SSPE & 0.1% SDS one wash of 15 minutes at 65° C.; 0.1×SSPE & 0.1×SDS one wash of 15 minutes at 65° C.\nThe blot was washed as follows: 2×SSC & 0.1% SDS two washes of 5 minutes each at room temperature; 1×SSC & 0.1% SDS one wash of 15 minutes at 65° C.; 0.1×SSC & 0.1% SDS three washes of 15 minutes each at 65° C.\nThe blot was washed as follows: 2×SSPE & 0.1% SDS two washes of 5 minutes each; 1×SSPE & 0.1% SDS one wash of 15 minutes at 65° C.; 0.1×SSPE & 0.1×SDS one wash of 15 minutes at 65° C.\nThe final primer concentrations were 45 μM for the P450RAI-2 primers and 11.25 μM for the GAPDH-specific primers."}, "P450RAI-1": {"target": "T2, P450RAI-1 (Homo sapiens, UniProt O43174)", "T2 sequence (O43174 1-497)": "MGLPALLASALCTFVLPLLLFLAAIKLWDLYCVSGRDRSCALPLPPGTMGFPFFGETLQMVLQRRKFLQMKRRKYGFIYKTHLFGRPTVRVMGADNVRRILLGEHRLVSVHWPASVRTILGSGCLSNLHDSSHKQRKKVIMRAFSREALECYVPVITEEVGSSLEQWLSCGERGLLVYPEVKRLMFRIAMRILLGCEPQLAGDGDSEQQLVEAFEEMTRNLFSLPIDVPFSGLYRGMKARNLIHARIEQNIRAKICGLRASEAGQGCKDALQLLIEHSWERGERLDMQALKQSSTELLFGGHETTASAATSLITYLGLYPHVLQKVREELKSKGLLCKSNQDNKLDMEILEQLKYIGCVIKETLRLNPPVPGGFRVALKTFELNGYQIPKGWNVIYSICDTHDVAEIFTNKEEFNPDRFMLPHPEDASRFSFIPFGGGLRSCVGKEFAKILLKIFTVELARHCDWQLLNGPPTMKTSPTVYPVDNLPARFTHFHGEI", "test": "Competitive inhibition of [3H]all-trans-RA metabolism in COS-1 cells transfected with pcDNA3.1-P450RAI-1", "type": "cell-based", "design": "expressed in transfected cells; host or cells: COS-1 (African green monkey kidney), transient", "settings": "COS-1 cells expressing P450RAI-1, 2 nM [3H]all-trans-RA", "description": "COS-1 cells were transfected with either pcDNA3.1-P450RAI-1 or pcDNA3.1-P450RAI-2 in 6-well tissue culture plates as described above. 48 hours post-transfection cells were harvested, pooled, washed with DMEM medium and replated into duplicate 48-well plates with 5×10^5 cells per well."}, "P450RAI-2": {"target": "T3, P450RAI-2 (Homo sapiens, UniProt Q9NR63)", "T3 sequence (Q9NR63 1-512)": "T1 sequence (Q9NR63 1-512)", "test": "Competitive inhibition of [3H]all-trans-RA metabolism in COS-1 cells transfected with pcDNA3.1-P450RAI-2", "type": "cell-based", "design": "The full-length human P450RAI-2 cDNA was cloned into the eukaryotic expression vector pcDNA 3.1; expressed in transfected cells; host or cells: COS-1 (African green monkey kidney), transient", "settings": "COS-1 cells expressing P450RAI-2, 2 nM [3H]all-trans-RA", "text": "COS-1 cells were transfected with either pcDNA3.1-P450RAI-1 or pcDNA3.1-P450RAI-2 in 6-well tissue culture plates as described above."}}, "data": [{"smiles": "CC1=C(/C=C/C(C)=C/C=C/C(C)=C\\C(=O)O)C(C)(C)CCC1", "note": "[13-cis-RA, 13-cis retinoic acid]", "values": [{"measurement": "Competition of [3H]-RA metabolism in microsomes", "setting": "CYP26B (P450RAI-2)", "result": "did not compete at lower concentrations"}, {"measurement": "Induction of P450RAI-2 expression", "setting": "P450RAI-2 transcripts", "result": "induced"}, {"measurement": "Effectiveness as competitor of all-trans-RA metabolism", "setting": "P450RAI-1", "result": "less effective than all-trans-RA"}, {"measurement": "Effectiveness as competitor of all-trans-RA metabolism", "setting": "P450RAI-2", "result": "less effective than all-trans-RA"}]}]}
